Laboratory results: patent US11779628B2, “Use of cell-permeable peptide inhibitors of the JNK signal transduction pathway for the treatment of various diseases” (Xigen Inflammation Ltd., priority 2014, dated 2023)

How the values were obtained:
[1] = test system: Hep G2 human hepatocarcinoma tumor; assay: Orthotopic HEP G2 human liver carcinoma, dose/response; assay type: in vivo, mice; conditions: 0.1, 1, 5 mg/kg/inj IV, Q4Dx4
Experimental: The objective of this study was to determine the antitumor activity of XG-102 (dose/response) in the model of SWISS Nude mice bearing the orthotopic Hep G2 human hepatocarcinoma tumor.
For XG-102 administration XG-102 was prepared at the concentration of 1 mg/ml with sterile water (WFI, Aguettant, France). Lt was then cliluted at the concentrations of 0.2 and 0.02 mg/ml with sterile water. All these steps were performed within one hour prior to injection to mice. XG-102 was injected at 0.1, 1 and 5 mg/kg/inj. Four injections were performed, each separated by four days (Q4Dx4).
Twenty four hours before tumor induction, 32 female SWISS Nude mice were irradiated with a γ-source (2.5 Gy, Co^60, INRA, Dijon, France). […]
Mice were monitored every day throughout the study for behaviour and survival. The body weight was monitored twice a week for all mice throughout the study. […]
At D67, 3 mice randomly selected per group during randomization were sacrificed for observation of macroscopic development. […] Histological sections were analyzed by a pathologist expert to determine the metastatic invasion in liver.
For the body weight analysis body weight curves of mice were drawn. Mean body weight change (MBWC): Average weight change of treated animals in grams (weight at day X minus weight at D10) was calculated.
Efficacy parameters were expressed as a percent (T/C %). […]

[2] = test system: Primary cultured macrophages; assay type: cell-based
Experimental: FIG. 24 Primary cultured macrophages were incubated with XG-102 (SEQ ID NO: 11) and extensively washed.

CC(C)C[C@@H](NC(=O)[C@@H](Cc1ccccc1)NC(=O)[C@H]1CCCN1C(=O)[C@@H](CCC(N)=O)NC(=O)[C@H](NC(=O)[C@H]1CCCN1C(=O)[C@@H](CCCNC(=N)N)NC(=O)[C@@H](CO)NC(=O)[C@@H](CCC(N)=O)NC(=O)[C@H](N)CC(=O)O)C(C)C)C(=O)N[C@H](CC(N)=O)C(=O)N[C@H](CC(C)C)C(=O)N[C@@H](C(=O)N[C@@H](C(=O)N1CCC[C@@H]1C(=O)N[C@H](CCCNC(=N)N)C(=O)N[C@H](CCCCN)C(=O)N1CCC[C@@H]1C(=O)N[C@H](CCCNC(=N)N)C(=O)N1CCC[C@@H]1C(=O)N1CCC[C@@H]1C(=O)N[C@H](CCCNC(=N)N)C(=O)N[C@H](CCCNC(=N)N)C(=O)N[C@H](CCCNC(=N)N)C(=O)N[C@H](CCC(N)=O)C(=O)N[C@H](CCCNC(=N)N)C(=O)N[C@H](CCCNC(=N)N)C(=O)N[C@H](CCCCN)C(=O)N[C@H](CCCCN)C(=O)N[C@H](CCCNC(=N)N)C(=O)NCC(=O)O)[C@H](C)O)[C@H](C)O [XG-102]
body weight [1]: no apparent differences occurred for the body weight | incorporation into macrophages [2]: is strongly incorporated into primary macrophages
